Results reported in publication PMC5584945, “Evaluation of robenidine analog NCL195 as a novel broad-spectrum antibacterial agent” (PLoS ONE, 2017).

Assays:
MDBK = assay: Real-time cell viability, RealTime-Glo MT; assay type: cell-based, bovine; settings: 2 or 8 μg/ml, up to 20 h post-treatment
Excerpt: (§1) In order to ensure minimal off target mammalian cell cytotoxicity, we assayed NCL812, NCL195 and NCL219 for in vitro cytotoxicity using a panel of adherent mammalian cell lines: Caco-2 (human colorectal adenocarcinoma cell line), HEL 299 (non-cancerous human lung fibroblast cell line), Hep G2 (human hepatocellular carcinoma cell line), MDBK (normal bovine kidney cell line) and MCF7 (human mammary gland adenocarcinoma cell line). Cell lines were maintained in Dulbecco’s Modified Eagle’s Medium (DMEM; […] After 24 h incubation, media was removed, washed once with medium without antibiotics and fresh medium supplemented with 10% (vol/vol) FBS was added. […] Following exposure for 24 h, WST-1 reagent was added to each well at a final concentration of 10%. […] The IC50 value for each compound against each cell line was determined via non-linear regression (three parameters) using GraphPad Prism v6 software. The robustness of assays was confirmed with selected cell lines (Hep G2 and MDBK) seeded onto a 96–well Microwell Nunclon Delta Surface plate (Thermo Scientific Nunc; Cat No: 136101) at 5 × 10^4 cells per well.

S. pneumoniae = assay: MIC, broth micro-dilution (CLSI); assay type: cell-based, Streptococcus pneumoniae; settings: for MIC / MIC50 / MIC90: Streptococcus pneumoniae
Caco-2 = assay: In vitro cytotoxicity, WST-1; assay type: cell-based; settings: Homo sapiens, 24 h exposure, read-out: IC50 values ± SEM
Excerpt: as §1

HEL 299 = assay: In vitro cytotoxicity, WST-1; assay type: cell-based; settings: Homo sapiens, 24 h exposure, read-out: IC50 values ± SEM
Excerpt: as §1

MCF7 = assay: In vitro cytotoxicity, WST-1; assay type: cell-based; settings: Homo sapiens, 24 h exposure, read-out: IC50 values ± SEM
Excerpt: as §1

Hep G2 = assay: In vitro cytotoxicity, WST-1; assay type: cell-based; settings: Homo sapiens, HepG2; 24 h exposure; read-out: IC50 values ± SEM
Excerpt: as §1

S. pneumoniae D39 = assay: Minimum bactericidal concentration (MBC); assay type: cell-based; settings: Streptococcus pneumoniae
[1] = tested on: vancomycin-resistant enterococci (VRE); assay: MIC, broth micro-dilution (CLSI); assay type: cell-based, enterococci (porcine isolates); settings: for MIC50 / MIC90 / MIC: Enterococcus, VRE
[2] = Kinetic solubility by nephelometry; assay type: physicochemical; settings: kinetic from dmso stock
[3] = S3 Table isolates, absence of FBS

With `Cl.N=C(NN=Cc1ccc(Cl)cc1)NN=Cc1ccc(Cl)cc1` [NCL812, 2,2'-bis[(4-chlorophenyl)methylene] carbonimidic dihydrazide hydrochloride] the “Effect on cell viability (real-time)” value (MDBK) was “affected viability at 8 μg/ml”, the MIC range (S. pneumoniae; 21 isolates) was 2 to 8 µg/mL and the MIC range (S. pneumoniae; S1 Table isolates, 5% FBS + 3% washed RBC) was 4 to 8 µg/mL. It also gave an MIC range (S. pneumoniae; S1 Table isolates, 10% FBS + 3% washed RBC) of 2 to 8 µg/mL, an MIC (S. pneumoniae; A66.1 (serotype 3), 5% FBS) of 4 µg/mL and an MIC (S. pneumoniae; A66.1 (serotype 3), 10% FBS) of 4 µg/mL. For the same compound, the MIC (S. pneumoniae; ATCC6303, ATCC 6303 (serotype 3), 5% FBS + 3% washed RBC) was 4 µg/mL, the MIC (S. pneumoniae; ATCC6303, ATCC 6303 (serotype 3), 10% FBS + 3% washed RBC) was 4 µg/mL and the MIC (S. pneumoniae; D39/D39LUX (serotype 2), 5% FBS) was 8 µg/mL. The MIC (S. pneumoniae; D39/D39LUX (serotype 2), 10% FBS) was 8 µg/mL, the MIC (S. pneumoniae; EF3030 (serotype 19F), 5% FBS) was 8 µg/mL and the MIC (S. pneumoniae; EF3030 (serotype 19F), 10% FBS) was 8 µg/mL. For the same compound, the MIC (S. pneumoniae; L82016 (serotype 6B), 5% FBS) was 4 µg/mL, the MIC (S. pneumoniae; L82016 (serotype 6B), 10% FBS) was 4 µg/mL and the MIC (S. pneumoniae; P9 (serotype 6A), 5% FBS) was 4 µg/mL. The MIC (S. pneumoniae; P9 (serotype 6A), 10% FBS) was 4 µg/mL, the MIC (S. pneumoniae; P21 (serotype 3), 5% FBS) was 4 µg/mL and the MIC (S. pneumoniae; P21 (serotype 3), 10% FBS) was 4 µg/mL. For the same compound, the MIC50 (S. pneumoniae; S1 Table isolates, 5% FBS) was 4 µg/mL, the MIC90 (S. pneumoniae; S1 Table isolates, 5% FBS) was 8 µg/mL and the MIC50 (S. pneumoniae; S1 Table isolates, 10% FBS) was 4 µg/mL. For the same compound, the MIC90 (S. pneumoniae; S1 Table isolates, 10% FBS) was 8 µg/mL, the MIC (S. pneumoniae; TIGR4 (serotype 4), 5% FBS) was 4 µg/mL and the MIC (S. pneumoniae; TIGR4 (serotype 4), 10% FBS) was 4 µg/mL. It also gave an MIC (S. pneumoniae; WCH16 (serotype 6A), 5% FBS) of 4 µg/mL, an MIC (S. pneumoniae; WCH16 (serotype 6A), 10% FBS) of 8 µg/mL and an MIC (S. pneumoniae; WCH43 (serotype 4), 5% FBS) of 4 µg/mL. The MIC (S. pneumoniae; WCH43 (serotype 4), 10% FBS) was 4 µg/mL, the MIC (S. pneumoniae; WCH46 (serotype 4), 5% FBS) was 4 µg/mL and the MIC (S. pneumoniae; WCH46 (serotype 4), 10% FBS) was 4 µg/mL. It also gave an MIC (S. pneumoniae; WCH57 (serotype 8), 5% FBS) of 4 µg/mL, an MIC (S. pneumoniae; WCH57 (serotype 8), 10% FBS) of 4 µg/mL and an MIC (S. pneumoniae; WCH77 (serotype 5), 5% FBS) of 4 µg/mL. The MIC (S. pneumoniae; WCH77 (serotype 5), 10% FBS) was 2 µg/mL, the MIC (S. pneumoniae; WCH86 (serotype 4), 5% FBS) was 4 µg/mL and the MIC (S. pneumoniae; WCH86 (serotype 4), 10% FBS) was 8 µg/mL. The MIC (S. pneumoniae; WCH89 (serotype 7), 5% FBS) was 4 µg/mL, the MIC (S. pneumoniae; WCH89 (serotype 7), 10% FBS) was 8 µg/mL and the MIC (S. pneumoniae; WCH92 (serotype 4), 5% FBS) was 4 µg/mL. For the same compound, the MIC (S. pneumoniae; WCH92 (serotype 4), 10% FBS) was 4 µg/mL, the MIC (S. pneumoniae; WCH137 (serotype 6A), 5% FBS) was 4 µg/mL and the MIC (S. pneumoniae; WCH137 (serotype 6A), 10% FBS) was 4 µg/mL. The MIC (S. pneumoniae; WCH158 (serotype 19F), 5% FBS) was 4 µg/mL, the MIC (S. pneumoniae; WCH158 (serotype 19F), 10% FBS) was 4 µg/mL and the MIC (S. pneumoniae; WCH184 (serotype 19F), 5% FBS) was 4 µg/mL. It also gave an MIC (S. pneumoniae; WCH184 (serotype 19F), 10% FBS) of 4 µg/mL, an MIC (S. pneumoniae; WCH211 (serotype 11), 5% FBS) of 4 µg/mL and an MIC (S. pneumoniae; WCH211 (serotype 11), 10% FBS) of 4 µg/mL. The MIC (S. pneumoniae; WU2 (serotype 3), 5% FBS) was 8 µg/mL, the MIC (S. pneumoniae; WU2 (serotype 3), 10% FBS) was 8 µg/mL and the IC50 (Caco-2) was 8.2 ± 0.1 µg/mL. The IC50 (HEL 299) was 4.6 ± 0.1 µg/mL, the IC50 (MCF7) was 12 ± 0.2 µg/mL and the IC50 (Hep G2) was 9.4 ± 0.1 µg/mL. For the same compound, the MBC (S. pneumoniae D39) was 8 µg/mL, the “Fold increase of MIC range in the presence of 10% FBS” value ([1]; 10% FBS versus no FBS) was 8-16 fold and the MIC range ([1]; 20 isolates) was 2 to 4 µg/mL. For the same compound, the MIC50 ([1]; S3 Table isolates, 10% FBS) was 32 µg/mL, the MIC90 ([1]; S3 Table isolates, 10% FBS) was 32 µg/mL and the MIC50 [1, 3] was 2 µg/mL. It also gave an MIC90 [1, 3] of 2 µg/mL, an MIC ([1]; VRE 1 (49 FR), 10% FBS) of 32 µg/mL and an MIC ([1]; VRE 1 (49 FR), absence of FBS) of 2 µg/mL. It also gave an MIC ([1]; VRE 2 (53 FR), 10% FBS) of 32 µg/mL, an MIC ([1]; VRE 2 (53 FR), absence of FBS) of 2 µg/mL and an MIC ([1]; VRE 3 (55 FR), 10% FBS) of 32 µg/mL. For the same compound, the MIC ([1]; VRE 3 (55 FR), absence of FBS) was 2 µg/mL, the MIC ([1]; VRE 4 (57 FR), 10% FBS) was 32 µg/mL and the MIC ([1]; VRE 4 (57 FR), absence of FBS) was 2 µg/mL. The MIC ([1]; VRE5 (58 FR), 10% FBS) was 32 µg/mL, the MIC ([1]; VRE5 (58 FR), absence of FBS) was 4 µg/mL and the MIC ([1]; VRE 6 (59 FR), 10% FBS) was 32 µg/mL. The MIC ([1]; VRE 6 (59 FR), absence of FBS) was 2 µg/mL, the MIC ([1]; VRE 7 (270 G), 10% FBS) was 32 µg/mL and the MIC ([1]; VRE 7 (270 G), absence of FBS) was 4 µg/mL. It also gave an MIC ([1]; VRE 8 (277 G), 10% FBS) of 32 µg/mL, an MIC ([1]; VRE 8 (277 G), absence of FBS) of 2 µg/mL and an MIC ([1]; VRE 9 (61 FR), 10% FBS) of 32 µg/mL. It also gave an MIC ([1]; VRE 9 (61 FR), absence of FBS) of 2 µg/mL, an MIC ([1]; VRE 10 (62 FR), 10% FBS) of 32 µg/mL and an MIC ([1]; VRE 10 (62 FR), absence of FBS) of 2 µg/mL. It also gave an MIC ([1]; VRE 11 (284 G), 10% FBS) of 32 µg/mL, an MIC ([1]; VRE 11 (284 G), absence of FBS) of 2 µg/mL and an MIC ([1]; VRE 12 (290 G), 10% FBS) of 32 µg/mL. The MIC ([1]; VRE 12 (290 G), absence of FBS) was 2 µg/mL, the MIC ([1]; VRE 13 (251 G), 10% FBS) was 32 µg/mL and the MIC ([1]; VRE 13 (251 G), absence of FBS) was 2 µg/mL. The MIC ([1]; VRE 14 (252 G), 10% FBS) was 32 µg/mL, the MIC ([1]; VRE 14 (252 G), absence of FBS) was 2 µg/mL and the MIC ([1]; VRE 15 (63 FR), 10% FBS) was 32 µg/mL. For the same compound, the MIC ([1]; VRE 15 (63 FR), absence of FBS) was 2 µg/mL, the MIC ([1]; VRE 16 (60 FR), 10% FBS) was 32 µg/mL and the MIC ([1]; VRE 16 (60 FR), absence of FBS) was 4 µg/mL. The MIC ([1]; VRE 17 (45 FR), 10% FBS) was 32 µg/mL, the MIC ([1]; VRE 17 (45 FR), absence of FBS) was 2 µg/mL and the MIC ([1]; VRE 18 (69 W), 10% FBS) was 32 µg/mL. It also gave an MIC ([1]; VRE 18 (69 W), absence of FBS) of 2 µg/mL, an MIC ([1]; VRE 19 (70 W), 10% FBS) of 32 µg/mL and an MIC ([1]; VRE 19 (70 W), absence of FBS) of 2 µg/mL. It also gave an MIC ([1]; VRE 20 (78 W), 10% FBS) of 32 µg/mL, an MIC ([1]; VRE 20 (78 W), absence of FBS) of 2 µg/mL and an MIC range ([1]; S3 Table isolates, 10% FBS) of 32 µg/mL. The MIC range [1, 3] was 2 to 4 µg/mL, the solubility ([2]; pH 2.0) was 6.3 to 12.5 µg/mL and the solubility ([2]; pH 6.5) was less than 1.6 µg/mL.
